{"source": "patent US20020132236A1", "about": "“Specific inhibitors of ribosome recycling factors (RRF)” (priority 2000, published 2002)", "key": {"[1]": {"tested_on": "Swiss Webster male mice", "test": "Toxicity studies in mice", "assay_type": "in vivo", "conditions": "iv, ip", "experimental": "Swiss Webster male mice weighing 20-25 grams receive intraperitoneal or intravenous injections of tetra guanylic acid, dissolved in 0.9% sodium chloride, see Table 1 for dosages.\nFor sd-G4 to be active as a specific inhibitor of RRF sd-G4 must be non-toxic in living organisms. Dosages (20-125 mg/kg) of sd-G4 and its related tetra nucleotides are administered to mice intraperitonially, as well as intraveniously, and neither acute nor chronic toxicity is noted, i.e., no grossly observable changes in growth activity, locomotor activity, food intake, or water intake during an observation period of 25 days. Moreover, no pathological signs are noted at autopsy (Table 1). […] Thus, sd-G4 is best choice for a lead compound in the computer based rational design of the anti RRF agents."}, "[2]": {"target": "T1, RRF (Escherichia coli, UniProt P0A805)", "T1 sequence (P0A805 whole entry)": "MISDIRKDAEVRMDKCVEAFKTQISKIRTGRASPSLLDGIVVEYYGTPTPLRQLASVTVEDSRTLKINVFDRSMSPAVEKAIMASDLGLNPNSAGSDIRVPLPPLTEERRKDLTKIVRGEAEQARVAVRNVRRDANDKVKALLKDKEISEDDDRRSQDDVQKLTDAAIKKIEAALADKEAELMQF", "test": "RRF reaction: conversion of polysomes to monosomes (sucrose gradient)", "assay_type": "biochemical, E. coli", "conditions": "for Inhibition of the RRF reaction (conversion of polysomes to monosome): dose response, expressed as percent inhibition", "experimental": "The reaction mixture (275 μl) contained 72 ng/ml RRF, 0.4 μg/ml EF-G, 363 nM GTP, 10 mM Tris-Cl, pH 7.4, 8.2 mM MgSO4, […] NH4Cl, 0.3 mM DTT, […] puromycin, 1 A260 polysome of E. coli, and an increasing concentration of sd-G4, as indicated in FIG. 1. The reaction mixture is incubated for 15 min at 30° C., loaded onto a sucrose gradient (15% to 30% in buffer J (Hirashima, A., Kaji, A., Biochemistry 11: 461-471, 1972) and centrifuged at 40,000 rpm for 75 min at 4° C. The ISCO density gradient analyzer monitored sedimentation profiles of the polyribosome. The value is expressed as a percent inhibition calculated from the area of 70S and polysome on those profiles."}, "[3]": {"tested_on": "MS2 RNA dependent protein synthesis", "test": "MS2 RNA dependent protein synthesis in S30 extract", "assay_type": "biochemical, E. coli", "conditions": "7 μM, 8 minute point", "experimental": "The reaction mixture (30 μl) contains 12 μl S30 (Kaji, 1968), Premixture (Promega), 2.4 μg MS2 phage RNA (Boehringer Mannheim), 0.1 mM amino acids mixture minus methionine (Promega), 10.1 pmole ^35S-methionine (NEN, 0.6 Ci/μmole), 0.6 A ^260U S30 extract (Promega), and 1, 4, 7, or 10 μM sd-G4 (FIG. 3). The reaction mixture is incubated at 37° C. At various times after the onset of the reaction, hot TCA (trichloroacetic acid) insoluble counts are measured."}, "[4]": {"tested_on": "translation of polyuridylic acid (Poly U) into polyphenylalanine", "test": "Translation of polyuridylic acid (Poly U) into polyphenylalanine in S30 extract", "assay_type": "biochemical, E. coli", "conditions": "as high as 10 μM", "experimental": "The reaction mixture (30 μl) contains 12 μl S30, Premixture (Promega), 20 μM ^14C-phenylalanine (Amersham, 450 Ci/mole), 10 mM Mg acetate (MgAc), 0.08 μg/ml polyU (Sigma), 1 A260 unit of E. coli S30 extract (Promega), and 1, 4, 7, or 10 μM sd-G4 (FIG. 4). The reaction mixture is incubated at 37° C. At various periods after the onset of the reaction, hot TCA (trichloroacetic acid) insoluble counts are measured."}, "[5]": {"target": "T1, RRF", "test": "Release of ribosome-bound deacylated tRNA by RRF", "assay_type": "biochemical", "conditions": "7 μM, various amounts of E. coli polysome", "experimental": "The reaction mixture (550 μl) for the RRF reaction contains 0.2 nmole RRF where indicated, 0.2 nmole EF-G, 0.37 μM GTP, 275 μM puromycin, 10 μM sd-G4 where indicated, and various amounts of E. coli polysome (see FIG. 8). The mixture is incubated for 15 min. at 30° C. The released tRNA is separated from the complex with pre-washed Microcon 100 (Millipore, 330× g, 40 min). The filter is washed once by centrifugation with 550 μl of a buffer (10 mM Tris-Cl, pH 7.6, 8.2 mM MgSO4, 80 mM NH4Cl, 0.14 mM DTT) and combined with the filtrate. Separated tRNA solution is concentrated with Microcon 30 (Millipore, 14,000× g, 15 min. twice) to a total volume of 14 μl. The concentrated tRNA is charged with 0.15 μCi of ^14C-amino acids mixture (Amersham, 52 mCi/mg) in 30 μl of the reaction mixture (50 mM Tris-Cl, pH 7.8,10 mM MgAc, 6 mM β-mercaptoethanol, 3 mM ATP, 5 mM phosphoenolpyruvate, 138 μg pyruvate kinase, 33.3 μg aminoacyl tRNA synthetases). Cold (4° C.) TCA (trichloro acetic acid) insoluble radioactivity is measured to estimate the amount of tRNA released. In this experiment, the amount of tRNA released is measured by its capacity to accept an amino acid."}, "[6]": {"target": "E. coli RRF (Escherichia coli, UniProt P0A805)", "sequence (P0A805 whole entry)": "as above", "test": "Gel retardation assay with E. coli RRF and 32P-end-labeled sd-G4", "assay_type": "binding", "conditions": "about 2.4 μM, competed by non-labeled sd-G4, BSA negative control", "experimental": "The reaction mixture for the binding of ^32P-end-labeled sd-G4 to RRF (10 μl) contains 8 mM Tris-Cl(pH 7.6), 9.7 mM MgSO4, 81 mM NH4Cl, 1.3 mM DTT, and approximately 2.4 μM of ^32P-end-labeled sd-G4. E. coli RRF, EF-G, polysome, BSA are added as indicated in FIG. 9 and competitor non-labeled sd-G4 is added at ½, 1, 2, and 4 times the concentration of the labeled sd-G4 (FIG. 9). The mixture is incubated at 30° C. for 15 min. 5% Glycerol and one-tenth volume of 25% Ficoll containing xylane cyanol and bromphenol blue is added, and the entire reaction mixture is subjected to 4% polyacrylamide gel (29:1, acrylamide/bisacrylamide) electrophoresis at 10 V/cm with constant recirculation of TBE buffer (89 mM Tris-borate, 2.5 mM EDTA, pH 8.3). The gel is dried onto Whatman 3MM paper and subject to autoradiography."}, "[7]": {"target": "T1, RRF", "test": "RRF reaction: conversion of polysomes to monosomes (sucrose gradient)", "assay_type": "biochemical, E. coli", "conditions": "1× RRF (72 ng/ml) vs 2× RRF (144 ng/ml)"}}, "note": "“Also recorded” adds a separate entry of the source.", "data": [{"substance": "5′ phosphorylated sd-G4 [p sd-G4]", "values": [{"measurement": "Visual effect", "setting": "[1]; 20 mg-125 mg/kg", "result": "none"}]}, {"substance": "Tetraadenylic acid", "values": [{"measurement": "Inhibition of the RRF reaction (conversion of polysomes to monosome)", "setting": "[2]", "result": "ineffective"}]}, {"substance": "deoxyguarylic acid [d-G4, reference compound]", "values": [{"measurement": "Visual effect", "setting": "[1]; 125 mg/kg", "result": "none"}]}, {"substance": "phosphorothioate tetradeoxyguanylic acid [sd-G4]", "values": [{"measurement": "Concentration that significantly inhibited the RRF reaction", "setting": "[2]; 72 ng/ml RRF, 15 min at 30° C.", "result": 5, "unit": "µM"}, {"measurement": "Inhibition of the RRF reaction (conversion of polysomes to monosome)", "setting": "[2]", "result": "inhibits the RRF reaction in a dose-dependent manner; also recorded: has inhibitory activity; also recorded: effective"}, {"measurement": "Inhibition of protein synthesis (MS2 phage RNA translation)", "setting": "[3]", "result": 50, "unit": "%"}, {"measurement": "Polyphenylalanine formation (incorporation of labeled phenylalanine)", "setting": "[4]", "result": "does not inhibit"}, {"measurement": "Release of ribosome-bound deacylated tRNA by RRF", "setting": "[5]", "result": "does not inhibit release of tRNA"}, {"measurement": "Binding to RRF (retarded electrophoretic movement)", "setting": "[6]", "result": "binds"}, {"measurement": "Visual effect", "setting": "[1]; 20 mg-125 mg/kg", "result": "none"}, {"measurement": "Effect of excess RRF on inhibition of the RRF reaction", "setting": "[7]", "result": "reduced by addition of more RRF"}]}, {"substance": "phospo diester tetraguanylic acid [pd-G4]", "values": [{"measurement": "Inhibition of the RRF reaction (conversion of polysomes to monosome)", "setting": "[2]", "result": "not effective in inhibiting RRF"}, {"measurement": "Inhibition of the RRF reaction (conversion of polysomes to monosome)", "setting": "[2]; listed as phosphodiester oligoG", "result": "retains the ability to inhibit RRF to some extent"}]}, {"substance": "riboinosinic tetraphosphate [(RIP)4, reference compound]", "values": [{"measurement": "Visual effect", "setting": "[1]; 125 mg/kg", "result": "none"}]}, {"substance": "tetracytidylic acid", "values": [{"measurement": "Inhibition of the RRF reaction (conversion of polysomes to monosome)", "setting": "[2]", "result": "ineffective"}]}, {"substance": "tetrathymidylic acid", "values": [{"measurement": "Inhibition of the RRF reaction (conversion of polysomes to monosome)", "setting": "[2]", "result": "ineffective"}]}]}
